From ChEMBL document CHEMBL1201862, “PubChem BioAssay data set” (2004)
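Grown in 96-well plates, cells were treated for 48 hours with each compound at five concentrations. Insufficient inhibition: endpoint recorded as highest concentration tested. GI50 = concentration required for 50% inhibition of growth.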 Activity calls are given as the source filed them. Cut-off read from the data, not from the text of the source: active = GI50 up to about 1.1 µM and inactive = higher.

Key:
Test in all cases: DTP human tumour cell line panel, 48 h
KM-20L2 = test system: KM-20L2
SNB-78 = test system: SNB-78
EKVX = test system: EKVX
IGROV-1 = test system: IGROV-1
SK-MEL-5 = test system: SK-MEL-5
RXF 393 = test system: RXF 393
UACC-257 = test system: UACC-257
XF498 = test system: XF498
CAKI-1 = test system: CAKI-1
SF-539 = test system: SF-539
NCI-H226 = test system: NCI-H226
DMS-273 = test system: DMS-273
A549 = test system: A549
DLD-1 = test system: DLD-1
HOP-62 = test system: HOP-62
HL-60 = test system: HL-60
NCI-H23 = test system: NCI-H23
SK-MEL-2 = test system: SK-MEL-2
RXF 631 = test system: RXF 631
OVCAR-8 = test system: OVCAR-8
DMS-114 = test system: DMS-114
SF-295 = test system: SF-295
UO-31 = test system: UO-31
HT-29 = test system: HT-29
M14 = test system: M14
KM12 = test system: KM12
SK-OV-3 = test system: SK-OV-3
LXFL 529 = test system: LXFL 529
786-0 = test system: 786-0
ACHN = test system: ACHN
TK-10 = test system: TK-10
HCT-15 = test system: HCT-15
OVCAR-4 = test system: OVCAR-4
HCT-116 = test system: HCT-116
Malme-3M = test system: Malme-3M
U-251 = test system: U-251
UACC-62 = test system: UACC-62
MOLT-4 = test system: MOLT-4
K562 = test system: K562
RPMI-8226 = test system: RPMI-8226
M19-MEL = test system: M19-MEL
A498 = test system: A498
HCC 2998 = test system: HCC 2998
SW-620 = test system: SW-620
CCRF-CEM = test system: CCRF-CEM
SK-MEL-28 = test system: SK-MEL-28
OVCAR-3 = test system: OVCAR-3
NCI-H460 = test system: NCI-H460
SN12C = test system: SN12C
SNB-75 = test system: SNB-75
OVCAR-5 = test system: OVCAR-5
SNB-19 = test system: SNB-19
HOP-92 = test system: HOP-92
LOX IMVI = test system: LOX IMVI
COLO 205 = test system: COLO 205
HOP-18 = test system: HOP-18
SF-268 = test system: SF-268
SR = test system: SR
NCI-H522 = test system: NCI-H522

Measured: GI50

COC(=O)C1=C2CCC(=O)[C@@]2(C)C(OC(C)=O)C=CC1 (some centres undefined)
29.5 µM: HCT-15
inactive: KM-20L2 > 100 µM | SNB-78 57 µM | EKVX > 100 µM | IGROV-1 > 100 µM | SK-MEL-5 > 100 µM | RXF 393 > 100 µM | UACC-257 40.5 µM | XF498 36.3 µM | CAKI-1 > 100 µM | SF-539 49.3 µM | NCI-H226 > 100 µM | DMS-273 36.6 µM | A549 > 100 µM | DLD-1 41.6 µM | HOP-62 > 100 µM | HL-60 29.5 µM | NCI-H23 76.9 µM | SK-MEL-2 71.6 µM | RXF 631 20.5 µM | OVCAR-8 43 µM | DMS-114 32.7 µM | SF-295 37.1 µM | UO-31 > 100 µM | HT-29 > 100 µM | M14 88.9 µM | KM12 > 100 µM | SK-OV-3 > 100 µM | LXFL 529 36.8 µM | 786-0 > 100 µM | ACHN > 100 µM | TK-10 > 100 µM | OVCAR-4 > 100 µM | HCT-116 24.5 µM | Malme-3M > 100 µM | U-251 59.6 µM | UACC-62 76.6 µM | MOLT-4 35.9 µM | K562 30.8 µM | RPMI-8226 34.6 µM | M19-MEL > 100 µM | A498 > 100 µM | HCC 2998 > 100 µM | SW-620 36.4 µM | CCRF-CEM 22.9 µM | SK-MEL-28 > 100 µM | OVCAR-3 53.6 µM | NCI-H460 > 100 µM | SN12C > 100 µM | SNB-75 56.8 µM | OVCAR-5 > 100 µM

COCOCC[C@@H]1CC=CC(NC(=O)OCc2ccccc2)C1/C=C/C(=O)CCC1OCCO1 (some centres undefined)
16.4 µM: HCT-15
inactive: KM-20L2 34.9 µM | SNB-78 48.1 µM | EKVX 50.1 µM | IGROV-1 56.6 µM | SK-MEL-5 55.2 µM | RXF 393 29.7 µM | UACC-257 25.4 µM | XF498 34.4 µM | CAKI-1 44.2 µM | SF-539 25.6 µM | NCI-H226 46.7 µM | DMS-273 23 µM | A549 75.5 µM | DLD-1 17.1 µM | HOP-62 > 79.8 µM | HL-60 18.5 µM | NCI-H23 37.6 µM | SK-MEL-2 25.4 µM | OVCAR-8 19.1 µM | DMS-114 29.9 µM | SF-295 48.1 µM | UO-31 46.6 µM | HT-29 38.9 µM | M14 29.5 µM | SNB-19 > 100 µM | KM12 18.8 µM | SK-OV-3 54.5 µM | LXFL 529 22.4 µM | HOP-92 > 54.8 µM | 786-0 48.4 µM | ACHN 36.6 µM | TK-10 46.8 µM | OVCAR-4 29 µM | HCT-116 17.7 µM | Malme-3M 98.2 µM | U-251 25.7 µM | UACC-62 25.5 µM | MOLT-4 10.5 µM | K562 32.1 µM | RPMI-8226 26.1 µM | M19-MEL 19.1 µM | LOX IMVI 18.5 µM | A498 71.1 µM | HCC 2998 > 63.7 µM | COLO 205 20.7 µM | SW-620 22.8 µM | CCRF-CEM 17.3 µM | SK-MEL-28 42.1 µM | HOP-18 34.3 µM | SF-268 34 µM | OVCAR-3 27.2 µM | NCI-H460 38.6 µM | SR 3.79 µM | SN12C 25.2 µM | SNB-75 28.8 µM | NCI-H522 16.4 µM | OVCAR-5 > 72.8 µM
